Results reported in publication PMC7463537, “Synthesis and Evaluation of Antimicrobial and Cytotoxic Activity of Oxathiine-Fused Quinone-Thioglucoside Conjugates of Substituted 1,4-Naphthoquinones” (Molecules, 2020).

Assays:
E. coli K-12 = assay: Agar diffusion method, E. coli; type: cell-based, Escherichia coli
Protocol: (§1) Elyakov Pacific Institute of Bioorganic Chemistry, Far East Branch, Russian Academy of Sciences. Test substances were dissolved in DMSO at concentrations of 1.0, 0.1, and 0.01 mg/mL. All strains were grown on trypticase-soy agar TSA (BBL) at 37 °C. […] After incubation of the dishes at 37 °C for 24 h (for bacteria) and 48 h (for the fungus) at 28 °C, the diameters of the growth inhibition zones of pathogenic microorganisms (mm) were measured, including the diameter of the wells. Commercial antibacterial drugs (vancomicin and gentamicin) and antifungal (clotrimazol) drugs were used as positive controls.

[1] = tested on: mouse ascites Ehrlich carcinoma; assay: Cytotoxicity, nonspecific esterase (FDA) assay, ascites Ehrlich carcinoma cells; conditions: for EC50: Mus musculus, Ehrlich, 24 h, read-out: Cytotoxicity (EC50), Ascites Ehrlich Carcinoma; for Selectivity Index (SI), Ascitic Ehrlich Carcinoma: SI = EC50 (Jb6 Cl 41-5a normal cells)/EC50 (tumor cells)
C. albicans KMM 453 = assay: Agar diffusion method, C. albicans; type: cell-based; conditions: Candida albicans, read-out: Diameter of Zone Inhibition, C. albicans; for zone of inhibition at 100 µg/disc: KMM453, 48 h, 100 µg/well, 48 h at 28 °C
Protocol: as §1

B. cereus ATCC 10702 = assay: Agar diffusion method, B. cereus; type: cell-based, Bacillus cereus; conditions: for zone of inhibition at 100 µg/disc: ATCC10702, 24 h, 100 µg/well, 24 h, incl. 7 mm well
Protocol: as §1

[2] = tested on: human cervical cancer (HeLa); assay: Cytotoxicity, MTT assay, HeLa cells; conditions: for EC50: Homo sapiens, HeLa, 24 h, read-out: Cytotoxicity (EC50), HeLa; for Selectivity Index (SI), HeLa: SI = EC50 (Jb6 Cl 41-5a normal cells)/EC50 (tumor cells)
[3] = tested on: mouse neuroblastoma (Neuro 2a); assay: Cytotoxicity, MTT assay, Neuro 2a cells; conditions: for EC50: N2a, 24 h, read-out: Cytotoxicity (EC50), Neuro 2a; for Selectivity Index (SI), Neuro-2a: SI = EC50 (Jb6 Cl 41-5a normal cells)/EC50 (tumor cells)
S. aureus ATCC 21027 = assay: Agar diffusion method, S. aureus; type: cell-based, Staphylococcus aureus; set-up: key to Diameter of Zone Inhibition, S. aureus: Zones within 20–40 mm mean strong antibiotic activity; zones up to 20 mm—moderate; ≤10 mm—weak; +—insignificant; conditions: for zone of inhibition at 100 µg/disc: ATCC21027, 24 h
Protocol: as §1

P. aeruginosa ATCC 27853 = assay: Agar diffusion method, P. aeruginosa; type: cell-based, Pseudomonas aeruginosa; conditions: for zone of inhibition at 100 µg/disc: ATCC27853, 100 µg/well
Protocol: as §1

[4] = Cytotoxicity, MTT assay, Jb6 Cl 41-5a normal epithelial cells; conditions: mouse, Jb6 Cl 41-5a normal epithelial cells
[5] = Escherichia coli, K12, 100 µg/well, read-out: Diameter of Zone Inhibition, E. coli
[6] = Bacillus cereus, read-out: Diameter of Zone Inhibition, B. cereus
[7] = Pseudomonas aeruginosa, read-out: Diameter of Zone Inhibition, P. aeruginosa
[8] = Staphylococcus aureus, 100 µg/well, 24 h, incl. 7 mm well, read-out: Diameter of Zone Inhibition, S. aureus

## COc1c(Cl)c(Cl)c(OC)c2c1C(=O)C1=C(S[C@@H]3O[C@H](CO)[C@@H](O)[C@H](O)[C@H]3O1)C2=O [Compound 18a, (2R,3S,4S,4aR,12aS)-8,9-Dichloro-3,4-dihydroxy-2-hydroxymethyl-7,10-dimethoxy-3,4,4a,12a-tetrahydro-2H-naphtho[2,3-b]pyrano[2,3-e][2,5]oxathiine-6,11-dione]
E. coli K-12; [5]
  zone of inhibition at 100 µg/disc: 0 mm
[1]
  EC50: 8.8 µM
  Selectivity Index (SI), Ascitic Ehrlich Carcinoma: 0.2
C. albicans KMM 453
  zone of inhibition at 100 µg/disc: 0 mm
B. cereus ATCC 10702; [6]
  zone of inhibition at 100 µg/disc: 0 mm
[2]
  EC50: 10.9 µM
  Selectivity Index (SI), HeLa: 0.1
[3]
  EC50: 2.4 µM
  Selectivity Index (SI), Neuro-2a: 0.6
S. aureus ATCC 21027; 100 µg/well, 24 h, incl. 7 mm well
  Diameter of Zone Inhibition, S. aureus: +
other
  melting point: 222 to 224 °C
P. aeruginosa ATCC 27853; [7]
  zone of inhibition at 100 µg/disc: 0 mm
[4]
  EC50 at 24 h: 1.5 µM

## Clc1ccccc1C(c1ccccc1)(c1ccccc1)n1ccnc1 [Clotrimazol (disk), reference compound]
C. albicans KMM 453; KMM453, 10 µg (disk)
  zone of inhibition at 10 µg/disc: 15 ± 2 mm

## COc1c(Cl)c(Cl)c(OC)c2c1C(=O)C1=C(S[C@@H]3OC[C@H](O)[C@H](O)[C@H]3O1)C2=O [Compound 18d, (3S,4S,4aR,12aS)-8,9-Dichloro-3,4-dihydroxy-7,10-dimethoxy-3,4,4a,12a-tetrahydro-2H-naphtho[2,3-b]pyrano[2,3-e][2,5]oxathiine-6,11-dione]
E. coli K-12; 100 µg/well
  Diameter of Zone Inhibition, E. coli: not active
E. coli K-12; [5]
  zone of inhibition at 100 µg/disc: 0 mm
[1]
  EC50: 4.1 µM
  Selectivity Index (SI), Ascitic Ehrlich Carcinoma: 1
C. albicans KMM 453
  zone of inhibition at 100 µg/disc: 0 mm
B. cereus ATCC 10702; [6]
  zone of inhibition at 100 µg/disc: < 20 mm
[2]
  EC50: 8.7 µM
  Selectivity Index (SI), HeLa: 0.5
[3]
  EC50: 2.8 µM
  Selectivity Index (SI), Neuro-2a: 1.5
S. aureus ATCC 21027; [8]
  zone of inhibition at 100 µg/disc: < 20 mm
other
  melting point: 286 to 289 °C
P. aeruginosa ATCC 27853; [7]
  zone of inhibition at 100 µg/disc: 0 mm
[4]
  EC50 at 24 h: 4.3 µM

## O=C1C2=C(S[C@@H]3OC[C@@H](O)[C@H](O)[C@H]3O2)C(=O)c2c(O)cccc21 [Compound 19c, (3R,4S,4aR,12aS)-3,4,10-Trihydroxy-3,4,4a,12a-tetrahydro-2H-naphtho[2,3-b]pyrano[2,3-e][2,5]oxathiine-6,11-dione]
E. coli K-12; [5]
  zone of inhibition at 100 µg/disc: 0 mm
[1]
  EC50: 7.4 µM
  Selectivity Index (SI), Ascitic Ehrlich Carcinoma: 0.8
C. albicans KMM 453
  zone of inhibition at 100 µg/disc: 0 mm
B. cereus ATCC 10702; [6]
  zone of inhibition at 100 µg/disc: 10 ± 2 mm
[2]
  EC50: 4.9 µM
  Selectivity Index (SI), HeLa: 1.2
[3]
  EC50: 13.3 µM
  Selectivity Index (SI), Neuro-2a: 0.4
S. aureus ATCC 21027; [8]
  zone of inhibition at 100 µg/disc: 8 ± 1 mm
other
  melting point: 348 to 350 °C (dec.)
P. aeruginosa ATCC 27853; [7]
  zone of inhibition at 100 µg/disc: 0 mm
[4]
  EC50 at 24 h: 5.9 µM

## CNC(C)C1CCC(N)C(OC2C(N)CC(N)C(OC3OCC(C)(O)C(NC)C3O)C2O)O1 (centres unmarked) [Gentamicin (disk), reference compound]
E. coli K-12; Escherichia coli, K12, 10 µg (disk), read-out: Diameter of Zone Inhibition, E. coli
  zone of inhibition at 10 µg/disc: 22 ± 3 mm
B. cereus ATCC 10702; Bacillus cereus, ATCC10702, 10 µg/well (gentamicin: disk), read-out: Diameter of Zone Inhibition, B. cereus
  zone of inhibition at 10 µg/disc: 25 ± 1 mm
S. aureus ATCC 21027; Staphylococcus aureus, ATCC21027, 10 µg/well (gentamicin: disk), read-out: Diameter of Zone Inhibition, S. aureus
  zone of inhibition at 10 µg/disc: 25 ± 2 mm
P. aeruginosa ATCC 27853; Pseudomonas aeruginosa, ATCC27853, 10 µg (disk), read-out: Diameter of Zone Inhibition, P. aeruginosa
  zone of inhibition at 10 µg/disc: 18 ± 2 mm

## COc1c(Cl)c(Cl)c(OC)c2c1C(=O)C1=C(S[C@@H]3O[C@H](CO)[C@H](O)[C@H](O)[C@H]3O1)C2=O [Compound 18b, (2R,3R,4S,4aR,12aS)-8,9-Dichloro-3,4-dihydroxy-2-(hydroxymethyl)-7,10-dimethoxy-3,4,4a,12a-tetrahydro-2H-naphtho[2,3-b]pyrano[2,3-e][2,5]oxathiine-6,11-dione]
E. coli K-12; [5]
  zone of inhibition at 100 µg/disc: 0 mm
[1]
  EC50: 1.1 µM
  Selectivity Index (SI), Ascitic Ehrlich Carcinoma: 2.6
C. albicans KMM 453
  zone of inhibition at 100 µg/disc: 0 mm
B. cereus ATCC 10702; [6]
  zone of inhibition at 100 µg/disc: 0 mm
[2]
  EC50: 8 µM
  Selectivity Index (SI), HeLa: 0.4
[3]
  EC50: 2.9 µM
  Selectivity Index (SI), Neuro-2a: 1
S. aureus ATCC 21027; [8]
  zone of inhibition at 100 µg/disc: 0 mm
other
  melting point: 276 to 279 °C
P. aeruginosa ATCC 27853; [7]
  zone of inhibition at 100 µg/disc: 0 mm
[4]
  EC50 at 24 h: 2.9 µM

## COc1ccc(OC)c2c1C(=O)C1=C(S[C@@H]3OC[C@@H](O)[C@H](O)[C@H]3O1)C2=O [Compound 17c, (3R,4S,4aR,12aS)-3,4-Dihydroxy-7,10-dimethoxy-3,4,4a,12a-tetrahydro-2H-naphtho[2,3-b]pyrano[2,3-e][2,5]oxathiine-6,11-dione]
E. coli K-12; [5]
  zone of inhibition at 100 µg/disc: 0 mm
[1]
  EC50: > 25 µM
C. albicans KMM 453
  zone of inhibition at 100 µg/disc: 0 mm
B. cereus ATCC 10702; [6]
  zone of inhibition at 100 µg/disc: 0 mm
[2]
  EC50: > 25 µM
[3]
  EC50: > 25 µM
S. aureus ATCC 21027; [8]
  zone of inhibition at 100 µg/disc: 0 mm
other
  melting point: 329 to 332 °C
P. aeruginosa ATCC 27853; [7]
  zone of inhibition at 100 µg/disc: 0 mm
[4]
  EC50 at 24 h: > 25 µM

## COc1ccc(OC)c2c1C(=O)C1=C(S[C@@H]3O[C@H](CO)[C@@H](O)[C@H](O)[C@H]3O1)C2=O [Compound 17a, (2R,3S,4S,4aR,12aS)-3,4-Dihydroxy-2-hydroxymethyl-7,10-dimethoxy-3,4,4a,12a-tetrahydro-2H-naphtho[2,3-b]pyrano[2,3-e][2,5]oxathiine-6,11-dione]
E. coli K-12; [5]
  zone of inhibition at 100 µg/disc: 0 mm
[1]
  EC50: > 25 µM
C. albicans KMM 453
  zone of inhibition at 100 µg/disc: 0 mm
B. cereus ATCC 10702; [6]
  zone of inhibition at 100 µg/disc: 0 mm
[2]
  EC50: > 25 µM
[3]
  EC50: > 25 µM
S. aureus ATCC 21027; [8]
  zone of inhibition at 100 µg/disc: 0 mm
other
  melting point: 332 to 335 °C
P. aeruginosa ATCC 27853; [7]
  zone of inhibition at 100 µg/disc: 0 mm
[4]
  EC50 at 24 h: > 25 µM

## CN[C@H](CC(C)C)C(=O)N[C@H]1C(=O)N[C@@H](CC(N)=O)C(=O)N[C@H]2C(=O)N[C@H]3C(=O)N[C@H](C(=O)N[C@H](C(=O)O)c4cc(O)cc(O)c4-c4cc3ccc4O)[C@H](O)c3ccc(c(Cl)c3)Oc3cc2cc(c3O[C@@H]2O[C@H](CO)[C@@H](O)[C@H](O)[C@H]2O[C@H]2C[C@](C)(N)[C@H](O)[C@H](C)O2)Oc2ccc(cc2Cl)[C@H]1O [Vancomicin (disk), reference compound]
E. coli K-12; 30 µg (disk)
  Diameter of Zone Inhibition, E. coli: 0 mm
B. cereus ATCC 10702; 30 µg (disk)
  Diameter of Zone Inhibition, B. cereus: 20 ± 3 mm
S. aureus ATCC 21027; 30 µg (disk)
  Diameter of Zone Inhibition, S. aureus: 20 ± 2 mm
P. aeruginosa ATCC 27853; 30 µg (disk)
  Diameter of Zone Inhibition, P. aeruginosa: 0 mm

## COc1ccc(OC)c2c1C(=O)C1=C(S[C@@H]3OC[C@H](O)[C@H](O)[C@H]3O1)C2=O [Compound 17d, (3S,4S,4aR,12aS)-3,4-Dihydroxy-7,10-dimethoxy-3,4,4a,12a-tetrahydro-2H-naphtho[2,3-b]pyrano[2,3-e][2,5]oxathiine-6,11-dione]
E. coli K-12; [5]
  zone of inhibition at 100 µg/disc: 0 mm
[1]
  EC50: > 25 µM
C. albicans KMM 453
  zone of inhibition at 100 µg/disc: ≤ 10 mm
B. cereus ATCC 10702; [6]
  zone of inhibition at 100 µg/disc: 0 mm
[2]
  EC50: > 25 µM
[3]
  EC50: > 25 µM
S. aureus ATCC 21027; [8]
  zone of inhibition at 100 µg/disc: 0 mm
other
  melting point: 317 to 320 °C
P. aeruginosa ATCC 27853; [7]
  zone of inhibition at 100 µg/disc: 0 mm
[4]
  EC50 at 24 h: > 25 µM
